Experimental data reported in patent US20070258970A1, “Methods for Inhibiting Hiv and Other Viral Infections by Modulating Ceramide Metabolism” (priority 2003, published 2007).

Legend:
cells = assay: Apoptotic effects on the cells by annexin 5 staining / toxicity; type: cell-based; conditions: at the low concentrations that inhibit HIV-1
ceramide [1] = assay: Ceramide quantitation by [3H]sphingosine incorporation in HeLa-derived target cells; type: cell-based
CCR5 = assay: Flow cytometry of cell surface CCR5 on TMZ cells; type: cell-based
Procedure: (§1) TMZ cells, harvested with trypsin-EDTA in PBS, were centrifuged at 450×g and resuspended at 10^6 cells/ml in PBS-5% FBS-5% normal mouse serum. After incubation for 15 min at room temperature, the cells were washed twice in PBS-0.1% bovine serum albumin and resuspended in 100 μl of PBS-5% FBS-5% normal mouse serum. 20 μl of Phycoerythrin (PE)-conjugated mouse immunoglobulin G (IgG) anti-CD4, PE-conjugated mouse IgG anti-CXCR4, or PE-conjugated mouse IgG anti-CCR5, from Becton Dickenson (San Jose, Calif.) was then added to each sample. Cells were incubated at 4° C. for 1 hour and washed twice in PBS-0.1% BSA. Samples were fixed in PBS-1% paraformaldehyde and resuspended in 1 ml of PBS to be read by a FACScalibur instrument (Becton Dickinson, San Jose, Calif.) at 10,000 events/sample with respect to unlabeled cells.
(§2) Increasing ceramide concentrations is thought to perturb membrane properties due to the hydrophobic nature of this lipid and the tendency to self aggregate. The possible consequences of membrane altering properties on the cell surface expression of the main HIV receptors, CD4, X4 and R5, was investigated. […] CD4 expression decreases in a dose dependent manner from a control level of 100% to levels of 70%, 57% and 27% following treatment with 2, 5 and 10 μM of a 4-HPR compound respectively.

CXCR4 = assay: Flow cytometry of cell surface CXCR4 on TMZ cells; type: cell-based; conditions: 2 μM
Procedure: as §1, §2

ceramide [2] = assay: Ceramide level in monocyte derived macrophages; conditions: 5 uM
HIV-1 [3] = type: cell-based
HIV-1 gp160 (HXB2) = assay: Cell-cell fusion assay (HeLa cells expressing HIV-1 gp160 with TMZ target cells, luciferase); conditions: pretreated target cells, alone or combined; FIG. 8B
Procedure: Target TMZ cells were plated at 0.75×10^4 cells per well in a 96 well plate and treated with a 4-BPR compound for 48 hours with 5% CO2 in a humidified incubator. HeLa cells expressing HUV-1 gp160 (HXB2) in addition to gag, tat, rev and nef were then cocultured with target cells containing the tat inducible luciferase reporter cassette. Envelope and target cells were cocultivated at 37° C. for 7 hours. Luciferase activity was then measured using a Promega (Madison, Wis.) luciferase assay system kit. Briefly, the supernatants were removed and the cells were lysed with Steady Glo luciferase assay system. The light intensity of each well was measured on a Reporter luminometer. Mock-infected cells were used to determine background luminescence. All infectivity assays were performed in duplicate.
Briefly, HeLa cells expressing HIV-1 gp160 (HXB2) in addition to gag, tat, rev and nef were cocultured with CD4 positive target cells containing the tat inducible luciferase reporter cassette. […] Envelope and target cells were cocultivated at 37° C. for 7 hours following which the cells were lysed and luciferase activity quantitated.

Sendai virus = assay: R18 fluorescence dequenching viral fusion assay; conditions: increasing concentrations, 37° C., pH7; FIG. 9
Procedure: To further probe how ceramide accumulation might inhibit viral fusion, viral fusion was monitored using a well-established octadecyl rhodamine (R18) fluorescence dequenching (R18-fdq) assay. In this assay system R18-labeled Sendai virus was incubated with control or a 4-HPR compound treated cells for 30 min at 4° C. to allow for virus binding. Small aliquots of virus-cell complexes were added to a stirred cuvette at 37° C. containing 2 ml buffer at pH7. Fluorescence increases were recorded with a 1 sec time resolution in a SLM8000 spectrofluorimeter (SLMInstruments, Urbana, Ill.). […] This increase in fluorescence reflects dequenching of R18 upon the merging of viral and cell membranes.

VSV pseudotyped HIV-1 = type: cell-based
HIV-1 [4] = assay: HIV-1 infection of primary monocyte derived macrophages; type: cell-based; conditions: low uM concentrations, pretreated 2 days
CD4 = assay: Flow cytometry of cell surface CD4 on TMZ cells; type: cell-based
Procedure: as §1, §2

## CC1=C(/C=C/C(C)=C/C=C/C(C)=C/C(=O)Nc2ccc(O)cc2)C(C)(C)CCC1 [4-HPR compound, N-(4-hydroxyphenyl)retinamide]
cells
  toxicity: minimal toxicity
Ceramide [1]; HeLa cells, 5 uM
  increase in ceramide: 1.7 fold
CCR5; 2 μM
  CCR5 expression: 60%
CCR5; 5 μM
  CCR5 expression: 30%
CCR5; 10 μM
  CCR5 expression: 7%
CXCR4
  CXCR4 expression: 18%
Ceramide [2]
  increase in ceramide: 1.12 fold
HIV-1 [3]; X4 (NL4-3, MN), R5 (Bal, JRCSF) and primary isolates, FIG. 3b
  inhibition of HIV-1 isolates: dose-dependent inhibition
HIV-1 gp160 (HXB2)
  inhibition of fusion: 20%
Sendai virus
  inhibition of Sendai virus fusion (R18 fluorescence dequenching): dose dependent inhibition
VSV pseudotyped HIV-1
  infectivity of VSV pseudotyped HIV-1: not impaired
HIV-1 [4]; FIG. 6A
  HIV-1 infection of macrophages, CCR5 tropic isolate (BaL): Infection inhibition was observed
HIV-1 [4]; FIG. 6B
  HIV-1 infection of macrophages, primary isolate: Infection inhibition was observed
CD4; 2 μM
  CD4 expression (control level 100%): 70%
CD4; 5 μM
  CD4 expression (control level 100%): 57%
CD4; 10 μM
  CD4 expression (control level 100%): 27%

## CCCCCCCCCCCCC/C=C/[C@@H](O)[C@H](CO)NC(=O)CCCCCCCCCCCCCCC [C16, C16 ceramide]
HIV-1 [3]; pretreatment with 1 μM lipid for 10 minutes at 37° C., FIG. 5
  inhibition of HIV infection: approximately 60%

## sphingomyelinase
Ceramide [1]; sphingomyelinase pretreated cells
  ceramide levels following enzymatic activity: increased
HIV-1 [3]
  inhibition of HIV-1 infection: 60-70%

## CCCCCCCCCCCCCCCC(=O)NC(CN1CCOCC1)C(O)c1ccccc1 (centres unmarked) [PPMP, 1-phenyl-2-hexadecanoylamino-3-morpholino-1-propanol]
HIV-1 gp160 (HXB2)
  inhibition of fusion: ineffective
